Results from PMC10531311, “Anti-Inflammatory Activities of 8-Benzylaminoxanthines Showing High Adenosine A2A and Dual A1/A2A Receptor Affinity” (International Journal of Molecular Sciences, 2023).

How the values were obtained:
human adenosine A2BR = biological target: T1, human adenosine A2BR (Homo sapiens, UniProt P29275); assay: Radioligand binding at human adenosine A2B receptor vs. [3H]PSB-603; conditions: for Ki: human recombinant receptor in CHO cells, read-out: A2BR vs. [³H]PSB-603 Ki ± SEM; for inhibition at 1 µM: CHO cells, read-out: A2BR vs. [³H]PSB-603 % Inhibition ± SEM at 1 µM
T1 construct: expressed in transfected cells; host or cells: CHO cells
T1 sequence (P29275 1-332): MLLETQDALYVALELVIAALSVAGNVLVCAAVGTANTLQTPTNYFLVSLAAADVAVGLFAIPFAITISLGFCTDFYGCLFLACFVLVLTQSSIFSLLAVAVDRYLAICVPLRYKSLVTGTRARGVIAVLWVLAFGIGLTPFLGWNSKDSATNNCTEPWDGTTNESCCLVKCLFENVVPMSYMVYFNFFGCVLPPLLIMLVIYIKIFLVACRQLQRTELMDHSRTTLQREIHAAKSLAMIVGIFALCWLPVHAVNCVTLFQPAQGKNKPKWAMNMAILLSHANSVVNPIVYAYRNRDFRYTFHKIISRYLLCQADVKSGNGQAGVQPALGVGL
Protocol: (§1) Affinities for adenosine receptors were evaluated in radioligand binding assays as previously described. Human adenosine receptors were stably expressed in CHO cells. The following radioligands were used: [^3H]2-chloro-N^6-cyclopentyladenosine ([^3H]CCPA) for A1R; [^3H]3-(3-hydroxypropyl)-7-methyl-8-(m-methoxystyryl)-1-propargylxanthine ([^3H]MSX-2) for A2AR; [^3H]8-(4-(4-(4-chlorophenyl)piperazine-1-sulfonyl)phenyl)-1-propylxanthine ([^3H]PSB-603) for A2BR; [^3H]phenyl-8-ethyl-4-methyl-(8R)-4,5,7,8-tetrahydro-1H-imidazo [2,1-i]purine-5-one ([^3H]PSB-11) for A3R. Initially, compounds were tested at a concentration of 1 µM. […] At least three independent experiments were performed. Data were analyzed using GraphPad PRISM version 5.0 or higher (Graph Pad, San Diego, CA, USA). Ki were calculated using the Cheng–Prusoff equation.

human adenosine A3R = biological target: T2, human adenosine A3R (Homo sapiens, UniProt P0DMS8); assay: Radioligand binding at human adenosine A3 receptor vs. [3H]PSB-11; conditions: for inhibition at 1 µM: CHO cells, read-out: A3R vs. [H³]PSB-11 % Inhibition ± SEM at 1 µM; for Ki: human recombinant receptor in CHO cells, read-out: A3R vs. [H³]PSB-11 Ki ± SEM
T2 construct: expressed in transfected cells; host or cells: CHO cells
T2 sequence (P0DMS8 1-318): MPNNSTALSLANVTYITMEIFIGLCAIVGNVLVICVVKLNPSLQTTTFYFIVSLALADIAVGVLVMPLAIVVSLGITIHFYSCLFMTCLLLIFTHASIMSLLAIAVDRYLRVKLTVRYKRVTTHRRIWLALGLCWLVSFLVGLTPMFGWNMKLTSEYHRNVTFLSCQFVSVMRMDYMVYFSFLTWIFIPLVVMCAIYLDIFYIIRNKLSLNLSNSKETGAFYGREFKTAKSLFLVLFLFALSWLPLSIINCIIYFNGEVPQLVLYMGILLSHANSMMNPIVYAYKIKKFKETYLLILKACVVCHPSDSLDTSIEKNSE
Protocol: as §1

human adenosine A2AR = biological target: T3, human adenosine A2AR (Homo sapiens, UniProt P29274); assay: Radioligand binding at human adenosine A2A receptor vs. [3H]MSX-2; conditions: for Ki: human recombinant receptor in CHO cells, read-out: A2AR vs. [³H]MSX-2 Ki ± SEM
T3 construct: expressed in transfected cells; host or cells: CHO cells
Protocol: as §1

human adenosine A1R = biological target: T4, human adenosine A1R (Homo sapiens, UniProt P30542); assay: Radioligand binding at human adenosine A1 receptor vs. [3H]CCPA; conditions: for inhibition at 1 µM: CHO cells, read-out: A1R vs. [³H]CCPA % Inhibition ± SEM at 1 µM; for Ki: human recombinant receptor in CHO cells, read-out: A1R vs. [³H]CCPA Ki ± SEM
T4 construct: expressed in transfected cells; host or cells: CHO cells
T4 sequence (P30542 1-326): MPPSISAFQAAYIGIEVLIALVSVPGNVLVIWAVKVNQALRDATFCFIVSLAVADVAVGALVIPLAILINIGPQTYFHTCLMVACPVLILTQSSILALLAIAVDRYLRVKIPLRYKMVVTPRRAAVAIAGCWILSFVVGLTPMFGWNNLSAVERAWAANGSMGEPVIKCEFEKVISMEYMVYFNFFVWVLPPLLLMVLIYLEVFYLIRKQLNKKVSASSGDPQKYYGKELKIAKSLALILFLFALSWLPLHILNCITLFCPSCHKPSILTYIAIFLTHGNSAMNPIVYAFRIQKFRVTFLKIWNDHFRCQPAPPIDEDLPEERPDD
Protocol: as §1

human MAO B = biological target: T5, human MAO B (Homo sapiens, UniProt P27338); assay: Human MAO B inhibition, fluorometric method; format: biochemical; conditions: mean of two independent experiments, read-out: % of hMAO B Inhibition at 1 µM
T5 sequence (P27338 1-520): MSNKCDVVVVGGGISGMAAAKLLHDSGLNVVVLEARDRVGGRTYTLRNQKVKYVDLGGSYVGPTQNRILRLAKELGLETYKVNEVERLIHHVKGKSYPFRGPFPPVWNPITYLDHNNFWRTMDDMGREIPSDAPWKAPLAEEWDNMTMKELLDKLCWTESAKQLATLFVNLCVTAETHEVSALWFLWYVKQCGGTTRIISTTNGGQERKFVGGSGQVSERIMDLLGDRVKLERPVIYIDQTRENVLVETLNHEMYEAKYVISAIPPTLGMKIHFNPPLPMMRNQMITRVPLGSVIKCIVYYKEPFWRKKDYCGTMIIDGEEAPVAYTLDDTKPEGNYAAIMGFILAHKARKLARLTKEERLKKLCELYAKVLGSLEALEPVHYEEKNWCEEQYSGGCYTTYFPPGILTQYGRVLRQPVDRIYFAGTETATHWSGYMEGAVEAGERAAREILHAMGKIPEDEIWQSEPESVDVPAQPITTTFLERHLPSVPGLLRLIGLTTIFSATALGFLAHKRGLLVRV
Protocol: The compounds were tested twice in duplicates at a concentration of 1 μM by fluorometric method as previously described. Paratyramine (200 μM) was used as a substrate for the enzyme. Safinamide (1 μM; reversible) and rasagiline (1 μM; irreversible) were used as reference inhibitors.

T3 sequence (P29274 whole entry): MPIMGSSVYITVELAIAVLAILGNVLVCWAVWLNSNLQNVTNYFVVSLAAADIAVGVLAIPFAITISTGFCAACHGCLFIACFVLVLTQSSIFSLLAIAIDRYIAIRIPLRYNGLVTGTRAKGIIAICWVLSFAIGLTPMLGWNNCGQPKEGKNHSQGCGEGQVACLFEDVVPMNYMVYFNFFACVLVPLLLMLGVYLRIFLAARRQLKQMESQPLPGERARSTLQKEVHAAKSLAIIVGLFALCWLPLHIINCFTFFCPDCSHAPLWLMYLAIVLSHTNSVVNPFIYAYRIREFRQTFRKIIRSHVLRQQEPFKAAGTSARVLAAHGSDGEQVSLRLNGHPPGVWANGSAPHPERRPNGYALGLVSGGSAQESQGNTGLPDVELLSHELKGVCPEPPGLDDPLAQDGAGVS

Ki (human adenosine A2BR)	inhibition at 1 µM (human adenosine A3R)	Ki (human adenosine A3R)	Ki (human adenosine A2AR)	inhibition at 1 µM (human adenosine A1R)	Ki (human adenosine A1R)	melting point	inhibition at 1 µM (human MAO B)	inhibition at 1 µM (human adenosine A2BR)	A2AR vs. [³H]MSX-2 % Inhibition ± SEM at 1 µM (human adenosine A2AR; 1 µM, CHO cells)	SMILES
832 ± 133 nM	4%	> 1000 nM	302 ± 34 nM	26%	> 1000 nM	190 to 191 °C	8%			CCCn1c(=O)c2c(nc(NCc3ccccc3Cl)n2C)n(C)c1=O [compound 5, 8-((2-Chlorobenzyl)amino)-3,7-dimethyl-1-propyl-3,7-dihydro-1H-purine-2,6-dione]
> 1000 nM	8%	> 1000 nM	361 ± 82 nM	30%	> 1000 nM	206 to 207 °C	7%	33%		CCCn1c(=O)c2c(nc(NCc3ccccc3Br)n2C)n(C)c1=O [compound 12, 8-((2-Bromobenzyl)amino)-3,7-dimethyl-1-propyl-3,7-dihydro-1H-purine-2,6-dione]
> 1000 nM	6%	> 1000 nM	> 1000 nM	32%	> 1000 nM	224 to 226 °C	15%	21%	47 ± 2%	CCCn1c(=O)c2c(nc(NCc3ccccc3F)n2C)n(C)c1=O [compound 13, 8-((2-Fluorobenzyl)amino)-3,7-dimethyl-1-propyl-3,7-dihydro-1H-purine-2,6-dione]
687 ± 147 nM	18%	> 1000 nM	124 ± 26 nM	29%	> 1000 nM	241 to 243 °C	9%			CCCn1c(=O)c2c(nc(NCc3c(F)cccc3Cl)n2C)n(C)c1=O [compound 14, 8-((2-Chloro-6-fluorobenzyl)amino)-3,7-dimethyl-1-propyl-3,7-dihydro-1H-purine-2,6-dione]
> 1000 nM	0%	> 1000 nM	588 ± 74 nM	40%	> 1000 nM	185 to 187 °C	10%	34%		CCCn1c(=O)c2c(nc(NCc3cccc(Cl)c3)n2C)n(C)c1=O [compound 15, 8-((3-Chlorobenzyl)amino)-3,7-dimethyl-1-propyl-3,7-dihydro-1H-purine-2,6-dione]
> 1000 nM	11%	> 1000 nM	254 ± 59 nM		340 ± 73 nM	220 to 222 °C	11%	30%		CCCn1c(=O)c2c(nc(NCc3cccc(Br)c3)n2C)n(C)c1=O [compound 16, 8-((3-Bromobenzyl)amino)-3,7-dimethyl-1-propyl-3,7-dihydro-1H-purine-2,6-dione]
> 1000 nM	6%	> 1000 nM	605 ± 120 nM	17%	> 1000 nM	173 to 175 °C	5%	20%		CCCn1c(=O)c2c(nc(NCc3cccc(OC)c3)n2C)n(C)c1=O [compound 17, 8-((3-methoxybenzyl)amino)-3,7-dimethyl-1-propyl-3,7-dihydro-1H-purine-2,6-dione]
> 1000 nM	-5%	> 1000 nM	773 ± 127 nM	7%	> 1000 nM	200 to 201 °C	2%	17%		CCCn1c(=O)c2c(nc(NCc3ccc(OC)c(OC)c3)n2C)n(C)c1=O [compound 18, 8-((3,4-dimethoxybenzyl)amino)-3,7-dimethyl-1-propyl-3,7-dihydro-1H-purine-2,6-dione]
> 1000 nM	13%	> 1000 nM	137 ± 35 nM	44%	> 1000 nM	210 to 212 °C	32%	25%		C#CCn1c(=O)c2c(nc(NCc3ccccc3Br)n2C)n(C)c1=O [compound 20, 8-((2-Bromobenzyl)amino)-3,7-dimethyl-1-(prop-2-yn-1-yl)-3,7-dihydro-1H-purine-2,6-dione]
> 1000 nM	21%	> 1000 nM	287 ± 90 nM		353 ± 42 nM	224 to 226 °C	8%	41%		C#CCn1c(=O)c2c(nc(NCc3ccccc3F)n2C)n(C)c1=O [compound 21, 8-((2-Fluorobenzyl)amino)-3,7-dimethyl-1-(prop-2-yn-1-yl)-3,7-dihydro-1H-purine-2,6-dione]
> 1000 nM	14%	> 1000 nM	126 ± 15 nM		334 ± 122 nM	234 to 236 °C	8%	26%		C#CCn1c(=O)c2c(nc(NCc3cccc(Cl)c3)n2C)n(C)c1=O [compound 23, 8-((3-Chlorobenzyl)amino)-3,7-dimethyl-1-(prop-2-yn-1-yl)-3,7-dihydro-1H-purine-2,6-dione]
> 1000 nM	0%	> 1000 nM	225 ± 40 nM		460 ± 99 nM	217 to 219 °C	11%	35%		C#CCn1c(=O)c2c(nc(NCc3cccc(OC)c3)n2C)n(C)c1=O [compound 25, 8-((3-Methoxybenzyl)amino)-3,7-dimethyl-1-(prop-2-yn-1-yl)-3,7-dihydro-1H-purine-2,6-dione]
> 1000 nM	2%	> 1000 nM	108 ± 22 nM	-2%	> 1000 nM	247 to 249 °C	3%	28%		C#CCn1c(=O)c2c(nc(NCc3ccc(OC)c(OC)c3)n2C)n(C)c1=O [compound 26, 8-((3,4-dimethoxybenzyl)amino)-3,7-dimethyl-1-(prop-2-yn-1-yl)-3,7-dihydro-1H-purine-2,6-dione]
